Laboratory results taken from US5563142A, “Diaromatic substituted compounds as anti-HIV-1 agents” (The Upjohn Company, priority 1994, dated 1996).

Biological target: T1, viral reverse transcriptase (Human immunodeficiency virus type 1 group M subtype B, UniProt P04585)
T1 construct: Viral reverse transcriptase is found in extracts from bacterial clones; made in house; host or cells: Escherichia coli (extracts of bacterial clones, by the procedure of Larder et al., EMBO J. 6:3133-3137, 1987)
Test: Viral reverse transcriptase inhibition, cell free assay
Format: biochemical, human immunodeficiency virus (HIV-1)
Details: poly rC or poly rG template; for inhibition at 100 µM: read-out: RT % INHIBITION (100 μM), 100 μM
Description: The utility of the diaromatic substituted piperazines (III), the anti-AIDS piperazines (IV) and the indoles (V) of this invention can be determined by their ability to inhibit viral reverse transcriptase, an enzyme essential for human immunodeficiency virus replication. This enzyme has characteristics which differentiate it from other known cellular polymerases and it is a unique enzyme which is not found in uninfected cells. Viral reverse transcriptase is found in extracts from bacterial clones prepared according to the procedure described in AIDS Virus Reverse Transcriptase defined by high level expression in Escherichia coli, EMBO J. 6:3133-3137 (1987). Inhibition of this enzyme is determined in a cell free assay which measures the level of radioactive precursors incorporated into DNA. Extracts prepared according to the procedure of Science, 1125-1129 (1981) are incubated in a mixture of inhibitor, 20 mM dithiothreitol, 60 mM sodium chloride, 0.05% NP-40, 10 mM magnesium chloride, 50 mM Tris pH 8.3, 10 μM [^35 S]-labeled deoxynuleoside-5'-triphosphate, 10 μg/ml RNA template (poly rC or poly rG) and 5 μg/ml DNA primer (oligo dG or oligo dT) for 30 minutes at 37° C. Incorporation of radio-labeled percursor is determined by spotting aliquots of the reaction mixture on DE81 paper, washing the papers to remove unincorporated percursor, drying and determining counts. The results (IC50 means the concentration, in μM of drug, required to inhibit the reverse transcriptase activity to the extent of 50%) of various assay(s) are combined and reported as % inhibition and IC50 (calculated).
^1 Viral reverse transcriptase is found in extracts from bacterial
clones prepared according to the procedure described by Larder, B.,
Purifoy D., Powell, K. and Darby, G., AIDS virus reverse transcriptase
defined by high level expression in Escherichia coli., EMBO J. 6,
3133-3137 (1987). Inhibition of this enzyme is determined in a cell free
assay which measures the level of radioactive precursors incorporated int
DNA. Extracts prepared according to the procedure of Kleid, D. G., et
al., Science, 1125-1129 (1981) are incubated in a mixture of inhibitor, 2
mM dithiothreitol, 60 mM sodium chloride, 0.05% NP40, 10 mM magnesium
chloride, 50 mM Tris pH 8.3, 10 μM [^35 Slabeled
deoxynucleoside5triphosphate, 10 μg/ml RNA template (poly rC or poly
rG) and 5 μg/ml DNA primer (oligo dG or oligo dT) for 15 minutes at
37°. Incorporation of radio labeled precursor is determined by
harvesting the trichloroacetic acid precipitated reaction mixtures on
glass fiber filters, drying, and determining counts. The results of
various assays are combined and reported as % inhibition at a 100 μM

COc1ccc2[nH]c(C(=O)N(C)CCN(C)c3ncccc3NC(C)C)cc2c1 [Example 107, N,N'-Dimethyl-N-(5-methoxyindolyl-2-carbonyl)-N'-[3-(1-methylethylamino)-2-pyridyl]ethylenediamine]
inhibition at 100 µM: 77 to 87%

CCNc1cccnc1N(C)CCN(C)C(=O)c1cc2ccccc2[nH]1 [Example 123, N,N'-Dimethyl-N-(indolyl-2-carbonyl)-N'-(3-ethylamino-2-pyridyl)ethylenediamine]
inhibition at 100 µM: 47 to 60%

CCNc1cccnc1N1CCN(Cc2cc3cc(OC)ccc3[nH]2)CC1 [Example 80]
inhibition at 100 µM: 61 to 70%

CC(C)Nc1cccnc1N1CCN(C(=O)c2cc3cc(OCC(=O)OCc4ccccc4)ccc3[nH]2)CC1 [Example 67, 1-[5-(Benzyloxycarbonylmethoxy)indolyl-2-carbonyl]-4-[3-(1-methylethylamino)-2-pyridinyl]piperazine]
inhibition at 100 µM: 60 to 84%

CC(C)Nc1cccnc1N1CCN(C(=O)c2cc3c(ccc4ccccc43)[nH]2)CC1 [Example 122, 1-[Benz[e]indolyl-2-carbonyl]-4-[3-(1-methylethylamino)-2-pyridinyl]piperazine]
inhibition at 100 µM: 84%

CC(C)Nc1cccnc1N1CCN(C(=O)c2cc3cc(OCC(=O)O)ccc3[nH]2)CC1 [Example 68, 1-[5-(Carboxymethoxy)indolyl-2-carbonyl]-4-[3-(1-methylethylamino)-2-pyridinyl]piperazine]
RT % INHIBITION (100 μM): 78-95%

CC(C)Nc1cccnc1N(C)CCN(C)C(=O)c1cc2cc(F)ccc2[nH]1 [Example 108, N,N'-Dimethyl-N-(5-fluoroindolyl-2-carbonyl)-N'-(3-(1-methylethylamino)-2-pyridyl)ethylenediamine]
inhibition at 100 µM: 77 to 89%

CC(C)Nc1cccnc1N1CCN(C(=O)c2cc3ccc4ccccc4c3[nH]2)CC1 [Example 121, 1-[Benz[g]indolyl-2-carbonyl]-4-[3-(1-methylethylamino)-2-pyridinyl]piperazine]
inhibition at 100 µM: 64 to 70%

O=C(c1cc2ccccc2[nH]1)N1CCN(c2nccnc2NC2CC2)CC1 [Example 57, 1-(Indolyl-2-carbonyl)-4-(3-cyclopropylamino-2-pyrazinyl)piperazine]
inhibition at 100 µM: 52 to 65%

CC(C)(C)Nc1ccnnc1N1CCN(C(=O)c2cc3cc(OCc4ccccc4)ccc3[nH]2)CC1 [Example 119, 1-[5-Benzyloxyindolyl-2-carbonyl]-4-[4-(1,1-dimethylethylamino)-2-pyridazinyl]piperazine]
inhibition at 100 µM: 53 to 58%

CCNc1cccnc1N(C)CCCCCCN(C)C(=O)c1cc2ccccc2[nH]1 [Example 112]
inhibition at 100 µM: 74 to 82%

CCNc1cccnc1N(C)CCCN(C)C(=O)c1cc2ccccc2[nH]1 [Example 111]
inhibition at 100 µM: 86 to 92%

CC(C)Nc1cccnc1N1CCN(C(=O)c2cc3cc(Br)ccc3[nH]2)CC1 [Example 93, 1-[5-Bromoindolyl-2-carbonyl]-4-[3-(1-methylethylamino)-2-pyridinyl]piperazine]
inhibition at 100 µM: 87%

CC(C)(C)Nc1ccnnc1N1CCN(C(=O)c2cc3cc(O)ccc3[nH]2)CC1 [Example 120, 1-[5-Hydroxyindolyl-2-carbonyl]-4-[4-(1,1-dimethylethylamino)-2-pyridazinyl]piperazine]
inhibition at 100 µM: 87 to 90%

CCNc1cccnc1N1CCN(C(=O)c2cc3cc(OCc4ccccc4)ccc3[nH]2)CC1 [Example 35, 1-[5-Benzyloxyindolyl-2-carbonyl]-4-[3-(ethylamino)-2-pyridinyl]piperazine]
inhibition at 100 µM: 57 to 70%

CC(C)(C)Nc1nccnc1N1CCN(C(=O)c2cc3cc(F)ccc3[nH]2)CC1 [Example 51, 1-[5-Fluoroindolyl-2-carbonyl]-4-[3-(1,1-dimethylethylamino)-2-pyrazinyl]piperazine]
inhibition at 100 µM: 55%

CC(C)Nc1cccnc1N1CCN(C(=O)c2cccc3c2NCC3)CC1 [Example 129, 1-[2,3-Didehydroindolyl-7-carbonyl]-4-[3-(1-methylethylamino)-2-pyridinyl]piperazine]
inhibition at 100 µM: 68 to 84%

CCC(CC)Nc1cccnc1N1CCN(C(=O)c2cc3ccccc3[nH]2)CC1 [Example 100]
inhibition at 100 µM: 81 to 82%

CC(C)Nc1cccnc1OCCOC(=O)c1cc2ccccc2[nH]1 [Example 59, 2-(2-(Indolyl-2-carboxy)ethoxy)-3-(1-methylethylamino)pyridine]
inhibition at 100 µM: 61 to 75%

CC(C)Nc1cccnc1N1CCN(C(=O)c2cccc3cc[nH]c23)CC1 [Example 128, 1-[Indolyl-7-carbonyl]-4-[3-(1-methylethylamino)-2-pyridinyl]-piperazine]
inhibition at 100 µM: 89 to 98%

O=C(c1cc2ccccc2[nH]1)N1CCN(c2ncccc2NCCF)CC1 [Example 117, 1-[Indolyl-2-carbonyl]-4-[3(2-fluoroethylamino)-2-pyridinyl]piperazine]
inhibition at 100 µM: 92%

CCNc1cccnc1N1CCN(C(=O)c2cccc3c2NCC3)CC1 [Example 130]
inhibition at 100 µM: 48 to 59%

COc1c(C)cc(C(=O)N2CCN(c3ncccc3NC(C)C)CC2)cc1C [Example 78, 1-[3,5-Dimethyl-4-methoxybenzoyl]-4-[3-(1-methylethylamino)-2-pyridinyl]piperazine]
inhibition at 100 µM: 74%

CC(C)Nc1cccnc1N1CCN(C(=O)c2cc3ccc(C=O)cc3[nH]2)CC1 [Example 113]
inhibition at 100 µM: 92 to 96%

CC(C)Nc1cccnc1N(C)C1CCN(C(=O)c2cc3ccccc3[nH]2)CC1 [Example 131, 1-(Indolyl-2-carbonyl)-4-(N-methyl-N-(3-(1-methylethylamino)-2-pyridinyl)amino)piperidine]
inhibition at 100 µM: 85 to 97%

CC(C)Nc1cccnc1N1CCN(C(=O)c2cc3cccnc3[nH]2)CC1 [Example 109]
inhibition at 100 µM: 56 to 82%
